How the values were obtained:
[1] = target: T1, L-phenylalanine dehydrogenase produced by Bacillus sp. SCRC-R79a (Lysinibacillus sphaericus, UniProt P23307); conditions: pH 9.0; phenylpyruvate to L-phenylalanine as 100%
T1 sequence (P23307 1-381): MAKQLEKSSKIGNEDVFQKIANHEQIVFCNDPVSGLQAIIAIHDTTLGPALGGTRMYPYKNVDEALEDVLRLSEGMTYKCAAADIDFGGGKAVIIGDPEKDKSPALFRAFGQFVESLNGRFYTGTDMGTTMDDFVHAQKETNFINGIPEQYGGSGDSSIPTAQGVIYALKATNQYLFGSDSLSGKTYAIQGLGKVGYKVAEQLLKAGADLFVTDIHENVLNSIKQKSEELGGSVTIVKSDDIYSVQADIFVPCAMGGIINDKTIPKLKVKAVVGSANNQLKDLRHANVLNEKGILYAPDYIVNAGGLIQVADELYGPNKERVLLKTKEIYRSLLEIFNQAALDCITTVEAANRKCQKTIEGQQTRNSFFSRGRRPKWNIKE

[2] = target: T2, L-phenylalanine dehydrogenase produced by Sporosarcina ureae SCRC-R04 (Sporosarcina ureae, UniProt P97014); assay: Substrate and coenzyme specificity, oxidative deamination (Sporosarcina enzyme); type: biochemical; conditions: oxidative deamination; for activity at 10000 µM: substrate concentration 10 mM, L-phenylalanine = 100, read-out: Relative activity (%)
T2 sequence (P97014 1-379): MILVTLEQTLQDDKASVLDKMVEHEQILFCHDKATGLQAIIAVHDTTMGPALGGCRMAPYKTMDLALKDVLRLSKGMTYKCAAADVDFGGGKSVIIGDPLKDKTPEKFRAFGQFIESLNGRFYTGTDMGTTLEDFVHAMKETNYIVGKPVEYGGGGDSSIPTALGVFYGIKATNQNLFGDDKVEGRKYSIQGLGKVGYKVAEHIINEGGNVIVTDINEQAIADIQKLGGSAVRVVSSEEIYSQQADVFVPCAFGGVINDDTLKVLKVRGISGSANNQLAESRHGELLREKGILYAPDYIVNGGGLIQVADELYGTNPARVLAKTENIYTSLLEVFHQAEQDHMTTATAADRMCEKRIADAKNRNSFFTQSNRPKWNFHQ
Description: The substrate concentration is 10 mM, except for the L-tyrosine concentration which is 1.4 mM.

[3] = target: T1, L-phenylalanine dehydrogenase produced by Bacillus sp. SCRC-R79a; assay: Substrate and coenzyme specificity, oxidative deamination (Bacillus enzyme); type: biochemical; set-up: inoculated with Bacillus sp; endogenous in cells; host or cells: Bacillus sp; enzyme purified in house; conditions: oxidative deamination
Description: The substrate concentration is 10 mM except for the L-tyrosine concentration which is 1.4 mM.

Row | relative rate of converting the α-keto acid to the L-amino acid [1] [%] | SMILES | action of the enzyme on the amino acid as substrate (in words) [2] | activity at 10000 µM [2] [%] | action of the enzyme on the amino acid as substrate (in words) [3] | activity at 10000 µM ([3]; substrate concentration 10 mM, L-phenylalanine = 100, read-out: Relative activity (%)) [%]
1 | 100 | O=C(O)C(=O)Cc1ccccc1 [phenylpyruvate] | – | – | – | –
2 | – | N[C@@H](Cc1c[nH]c2ccccc12)C(=O)O [L--Tryptophan, L-tryptophan] | act very weakly | 6.8 | acting very weakly | 1.6
3 | – | CC[C@H](C)[C@H](N)C(=O)O [L--Isoleucine, L-isoleucine] | – | 0.54 | cannot serve as a substrate | –

Reference: US4849345A, “L-phenylalanine dehydrogenase and use thereof” (priority 1985, dated 1989)
